# Data from ChEMBL document CHEMBL1156061, “Design and synthesis of substituted nicotinamides as inhibitors of soluble epoxide hydrolase” (Bioorg Med Chem Lett, 2009).
# Biological target: T1, Bifunctional epoxide hydrolase 2 (Homo sapiens, UniProt P34913)
# T1 sequence (P34913 whole entry): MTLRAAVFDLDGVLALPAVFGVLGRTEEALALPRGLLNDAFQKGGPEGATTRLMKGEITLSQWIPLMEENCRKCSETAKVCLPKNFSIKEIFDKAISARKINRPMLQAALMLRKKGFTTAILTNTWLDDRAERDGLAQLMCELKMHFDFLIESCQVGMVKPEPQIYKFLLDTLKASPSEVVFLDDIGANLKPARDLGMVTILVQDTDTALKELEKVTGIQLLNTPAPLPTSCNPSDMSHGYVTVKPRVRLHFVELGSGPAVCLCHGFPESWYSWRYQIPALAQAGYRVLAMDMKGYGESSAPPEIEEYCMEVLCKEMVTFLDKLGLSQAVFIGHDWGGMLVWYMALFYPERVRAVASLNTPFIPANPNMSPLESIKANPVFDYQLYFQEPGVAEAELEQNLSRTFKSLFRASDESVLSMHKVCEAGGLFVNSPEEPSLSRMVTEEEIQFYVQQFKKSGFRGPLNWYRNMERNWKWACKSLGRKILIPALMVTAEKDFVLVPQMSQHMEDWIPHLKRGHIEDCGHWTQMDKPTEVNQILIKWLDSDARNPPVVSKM
# Assay: Inhibition of human soluble EH
row,IC50 [nM],Structure (SMILES)
1,5.4,O=C(NCCC(c1ccccc1)c1ccccc1)c1ccc(OCC(F)(F)F)nc1
2,18,O=C(NCCC(c1ccccc1)c1ccccc1)c1ccc(CCN2CCCC2)nc1
3,270,CS(=O)(=O)c1ccccc1CNC(=O)c1ccc(OCCC(F)(F)F)nc1
4,14,CNS(=O)(=O)c1ccc(CNC(=O)c2ccc(OCC(F)(F)F)nc2)c(Cl)c1
5,12,O=C(NCc1ccc(Br)cc1OC(F)(F)F)c1ccc(OCC(F)(F)F)nc1
6,110,CS(=O)(=O)c1ccc(CNC(=O)c2ccc(OCCC(F)(F)F)nc2)cc1
7,16,CCOCCn1cc(C(=O)NCc2ccc(Cl)cc2Cl)ccc1=O
8,14,N#Cc1ccc(CNC(=O)c2ccc(OCC(F)(F)F)nc2)c(Cl)c1
9,8.1,O=C(NCCC(c1ccccc1)c1ccccc1)c1ccc(=O)[nH]c1
10,12,CS(=O)(=O)c1ccc(-c2ccc(CNC(=O)c3ccc(OCCC(F)(F)F)nc3)cc2)cc1
11,1500,O=C(NCc1ccc(Cl)cc1Cl)c1ccc(CCN2CCCC2)nc1
12,15,CS(=O)(=O)c1ccc(CNC(=O)c2ccc(OCC(F)(F)F)nc2)c(Cl)c1
13,400,O=C(NCc1ccc(Cl)cc1Cl)c1ccc(=O)[nH]c1
14,6.6,O=C(NCc1ccc(Cl)cc1Cl)c1ccc(OCC(F)(F)F)nc1
15,1200,O=C(NCc1ccccc1)c1ccc(OCCC(F)(F)F)nc1

# System: not listed separately
# Assay: Metabolic stability in human liver microsomes assessed as half life
# Type: ADME, Microsome
row,half-life [h],Structure (SMILES)
1,0.633,O=C(NCCC(c1ccccc1)c1ccccc1)c1ccc(OCC(F)(F)F)nc1
2,5,O=C(NC1CCOCC1)C1CCN(C(=O)NCc2ccc(Cl)cc2Cl)CC1
3,0.767,O=C(NCCC(c1ccccc1)c1ccccc1)c1ccc(CCN2CCCC2)nc1
4,1.35,CNS(=O)(=O)c1ccc(CNC(=O)c2ccc(OCC(F)(F)F)nc2)c(Cl)c1
5,5,O=C(NCc1ccc(Br)cc1OC(F)(F)F)c1ccc(OCC(F)(F)F)nc1
6,2.6,CS(=O)(=O)c1ccc(CNC(=O)c2ccc(OCCC(F)(F)F)nc2)cc1
7,0.767,Nc1ccc(C(=O)NCc2ccc(Cl)cc2Cl)cn1
8,1.3,O=C(NCc1ccccc1OC(F)(F)F)c1ccc(OCC(F)(F)F)nc1
9,0.4,CCOCCn1cc(C(=O)NCc2ccc(Cl)cc2Cl)ccc1=O
10,3.13,N#Cc1ccc(CNC(=O)c2ccc(OCC(F)(F)F)nc2)c(Cl)c1
11,0.0667,CCOCCn1cc(C(=O)NCCC(c2ccccc2)c2ccccc2)ccc1=O
12,1.6,O=C(NCCC(c1ccccc1)c1ccccc1)c1ccc(=O)[nH]c1
13,1.6,CS(=O)(=O)c1ccc(CNC(=O)c2ccc(OCC(F)(F)F)nc2)c(Cl)c1
14,1.3,O=C(NCc1ccc(Cl)cc1Cl)c1ccc(=O)[nH]c1
15,0.55,Nc1ccc(C(=O)NCCC(c2ccccc2)c2ccccc2)cn1
16,2.97,O=C(NCc1ccc(Cl)cc1Cl)c1ccc(OCC(F)(F)F)nc1
17,5,CS(=O)(=O)c1cc(Cl)ccc1CNC(=O)c1ccc(OCC(F)(F)F)nc1

# Biological target: T1, Bifunctional epoxide hydrolase 2
# Assay: Inhibition of soluble EH in human HepG2 cells by cellular assay
# Type: cell-based
row,IC50 [nM],Structure (SMILES)
1,31,CNS(=O)(=O)c1ccc(CNC(=O)c2ccc(OCC(F)(F)F)nc2)c(Cl)c1
2,0.1,O=C(NCc1ccc(Br)cc1OC(F)(F)F)c1ccc(OCC(F)(F)F)nc1
3,12,N#Cc1ccc(CNC(=O)c2ccc(OCC(F)(F)F)nc2)c(Cl)c1
4,24,CS(=O)(=O)c1ccc(-c2ccc(CNC(=O)c3ccc(OCCC(F)(F)F)nc3)cc2)cc1
5,28,CS(=O)(=O)c1ccc(CNC(=O)c2ccc(OCC(F)(F)F)nc2)c(Cl)c1
6,18,O=C(NCc1ccc(Cl)cc1Cl)c1ccc(OCC(F)(F)F)nc1

# Biological target: T2, Bifunctional epoxide hydrolase 2 (Rattus norvegicus, UniProt P80299)
# T2 sequence (P80299 whole entry): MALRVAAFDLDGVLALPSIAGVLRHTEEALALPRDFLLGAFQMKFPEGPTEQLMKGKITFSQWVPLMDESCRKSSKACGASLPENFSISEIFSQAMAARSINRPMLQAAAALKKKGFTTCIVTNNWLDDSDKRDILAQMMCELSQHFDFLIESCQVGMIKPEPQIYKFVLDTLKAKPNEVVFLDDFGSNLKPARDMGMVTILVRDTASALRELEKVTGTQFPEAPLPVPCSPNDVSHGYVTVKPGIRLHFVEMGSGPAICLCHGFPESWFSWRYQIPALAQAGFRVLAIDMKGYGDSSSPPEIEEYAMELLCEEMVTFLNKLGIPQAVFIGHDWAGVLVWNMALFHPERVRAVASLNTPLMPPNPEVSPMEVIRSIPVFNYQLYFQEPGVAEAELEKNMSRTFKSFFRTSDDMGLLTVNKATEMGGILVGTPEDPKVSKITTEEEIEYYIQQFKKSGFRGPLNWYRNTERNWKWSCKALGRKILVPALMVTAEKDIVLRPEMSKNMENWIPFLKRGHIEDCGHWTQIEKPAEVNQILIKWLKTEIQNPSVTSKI
# Assay: Inhibition of rat sEH
row,IC50 [nM],Structure (SMILES)
1,7.8,O=C(NCCC(c1ccccc1)c1ccccc1)c1ccc(OCC(F)(F)F)nc1
2,7,O=C(NCc1ccc(Cl)cc1)c1ccc(OCCC(F)(F)F)nc1
3,9,O=C(NCCC(c1ccccc1)c1ccccc1)c1ccc(CCN2CCCC2)nc1
4,19,CNS(=O)(=O)c1ccc(CNC(=O)c2ccc(OCC(F)(F)F)nc2)c(Cl)c1
5,7,O=C(NCc1ccc(Br)cc1OC(F)(F)F)c1ccc(OCC(F)(F)F)nc1
6,25,CS(=O)(=O)c1ccc(CNC(=O)c2ccc(OCCC(F)(F)F)nc2)cc1
7,430,Nc1ccc(C(=O)NCc2ccc(Cl)cc2Cl)cn1
8,6,O=C(NCc1ccccc1OC(F)(F)F)c1ccc(OCC(F)(F)F)nc1
9,6,CCOCCn1cc(C(=O)NCc2ccc(Cl)cc2Cl)ccc1=O
10,4,CCOCCn1cc(C(=O)NCCC(c2ccccc2)c2ccccc2)ccc1=O
11,10,O=C(NCCC(c1ccccc1)c1ccccc1)c1ccc(=O)[nH]c1
12,4.3,CS(=O)(=O)c1ccc(-c2ccc(CNC(=O)c3ccc(OCCC(F)(F)F)nc3)cc2)cc1
13,16,CS(=O)(=O)c1ccc(CNC(=O)c2ccc(OCC(F)(F)F)nc2)c(Cl)c1
14,330,O=C(NCc1ccc(Cl)cc1Cl)c1ccc(=O)[nH]c1
15,8.5,Nc1ccc(C(=O)NCCC(c2ccccc2)c2ccccc2)cn1
16,7.3,O=C(NCc1ccc(Cl)cc1Cl)c1ccc(OCC(F)(F)F)nc1
17,11,CS(=O)(=O)c1cc(Cl)ccc1CNC(=O)c1ccc(OCC(F)(F)F)nc1

# System: not listed separately
# Assay: Plasma concentration in Sprague-Dawley rat at 5 mg/kg, po after 1 hr
# Type: ADME, organism-based
# Set-up: dose 5 mg/kg, route oral
row,concentration at 1 h [nM],Structure (SMILES)
1,2500,O=C(NCc1ccc(Cl)cc1Cl)c1ccc(OCC(F)(F)F)nc1

# System: not listed separately
# Assay: Metabolic stability in rat liver microsomes assessed as half life
# Type: ADME, Microsome
row,half-life [h],Structure (SMILES)
1,< 0.05,O=C(NCCC(c1ccccc1)c1ccccc1)c1ccc(OCC(F)(F)F)nc1
2,1.73,O=C(NC1CCOCC1)C1CCN(C(=O)NCc2ccc(Cl)cc2Cl)CC1
3,0.683,O=C(NCCC(c1ccccc1)c1ccccc1)c1ccc(CCN2CCCC2)nc1
4,0.417,CNS(=O)(=O)c1ccc(CNC(=O)c2ccc(OCC(F)(F)F)nc2)c(Cl)c1
5,0.283,O=C(NCc1ccc(Br)cc1OC(F)(F)F)c1ccc(OCC(F)(F)F)nc1
6,2.88,CS(=O)(=O)c1ccc(CNC(=O)c2ccc(OCCC(F)(F)F)nc2)cc1
7,0.733,Nc1ccc(C(=O)NCc2ccc(Cl)cc2Cl)cn1
8,0.117,O=C(NCc1ccccc1OC(F)(F)F)c1ccc(OCC(F)(F)F)nc1
9,0.317,CCOCCn1cc(C(=O)NCc2ccc(Cl)cc2Cl)ccc1=O
10,1.75,N#Cc1ccc(CNC(=O)c2ccc(OCC(F)(F)F)nc2)c(Cl)c1
11,0.0833,CCOCCn1cc(C(=O)NCCC(c2ccccc2)c2ccccc2)ccc1=O
12,0.117,O=C(NCCC(c1ccccc1)c1ccccc1)c1ccc(=O)[nH]c1
13,1.25,CS(=O)(=O)c1ccc(CNC(=O)c2ccc(OCC(F)(F)F)nc2)c(Cl)c1
14,3.18,O=C(NCc1ccc(Cl)cc1Cl)c1ccc(=O)[nH]c1
15,0.0833,Nc1ccc(C(=O)NCCC(c2ccccc2)c2ccccc2)cn1
16,0.117,O=C(NCc1ccc(Cl)cc1Cl)c1ccc(OCC(F)(F)F)nc1
17,1.65,CS(=O)(=O)c1cc(Cl)ccc1CNC(=O)c1ccc(OCC(F)(F)F)nc1
